Experimental data published in patent US8410049B2, “Methods and kits for preventing hypoglycemia” (Cebix, priority 2009, dated 2013).

Tests used:
[1] = C-peptide plasma levels, time-resolved fluoroimmunoassay; assay type: in vivo, human; settings: for Increase in pre-dosing morning C-peptide plasma level vs baseline: 4.5 months (visit 3)
Description: The sampling of C-peptide in plasma at visits 2 and 4 coincided with the clinical visit and the time between the most recent administration of the trial drug and sampling varied between patients. Thereby, the result of C-peptide concentrations in plasma was less suitable for pharmacokinetic evaluations, but the results contributed to the assessment of treatment compliance. C-peptide plasma levels were measured at baseline, and after 3 and 6 months of treatment. Analysis was performed by the Department of Clinical Chemistry Karolinska University Hospital, Solna using a time-resolved fluoroimmunoassay (AutoDelfia, Wallac Oy, Turku, Finland). […] The plasma levels of C-peptide attained in this study ranged from about 0.2 nM to a maximum of about 6 nM in the high dose group.

C-peptide antibodies = assay: Antibody formation against C-peptide, ELISA; assay type: in vivo, human; settings: baseline and after 3 and 6 months of C-peptide treatment
Description: C-peptide plasma samples, C-peptide antibodies, and markers for atherosclerosis were processed (centrifuged, etc.) and stored frozen until transport to a central lab. HLA typing samples were shipped to a central lab for processing and storage until analysis. All samples there were labelled uniquely, including information about screening number and sample time.
Samples for the assessment of antibody formation were collected at baseline and at visits 2 and 4. An appropriate enzyme-linked immunoabsorbant assay (ELISA) method was developed and assessments carried out.

[2] = tested on: type 1 diabetes patients with peripheral neuropathy; assay: ECG and vital signs; assay type: in vivo, human; settings: for BPd (diastolic blood pressure), change from baseline to 6 months treatment (visit 4), Mean ± SD / BPd (diastolic blood pressure), change from baseline to 6 months treatment (visit 4), Median / BPs (systolic blood pressure), change from baseline to 6 months treatment (visit 4), Mean ± SD / BPs (systolic blood pressure), change from baseline to 6 months treatment (visit 4), Median / Heart rate, change from baseline to 6 months treatment (visit 4), Mean ± SD / Heart rate, change from baseline to 6 months treatment (visit 4), Median / QTc-interval Bazett, change from baseline to 6 months treatment (visit 4), Mean ± SD / QTc-interval Bazett, change from baseline to 6 months treatment (visit 4), Median / QTc-interval Fredericia, change from baseline to 6 months treatment (visit 4), Mean ± SD / QTc-interval Fredericia, change from baseline to 6 months treatment (visit 4), Median: PP data set
Description: At the final clinical visit (at 6 months from S/B visit), a safety assessment including physical examination, ECG, vital signs, body weight, and sampling for clinical safety laboratory tests were performed. Furthermore, the metabolic control (HbA1c) was assessed, as well as C-peptide antibodies and C-peptide levels in plasma. All efficacy variables including SCV, SNAP, MCV, MDL, CMAP, QST were performed (two examinations within 2-14 days). E/I ratio and neurological status were also assessed. All used and unused clinical trial medication was returned by the patient and drug accountability was performed by study staff. The patient diary was reviewed including recording of concomitant medication, AEs, and drug accountability. FIG. 1 summarizes the study procedures and assessments conducted at each time point.

[3] = tested on: type 1 diabetes patients with peripheral neuropathy; assay: Clinical laboratory evaluation: hematology, clinical chemistries, urinalysis; assay type: in vivo, human; settings: following the study treatment
Description: Before starting the study, the investigator supplied the Sponsor with a list of the normal laboratory ranges and units of measurement for the laboratory variables to be determined during the study at the site. All abnormal laboratory (those out of the normal range) values required comments on the CRF, regardless of the clinical significance: • Error—Include improper sample preparation, hemolysis, delayed transit to laboratory, etc. • Not relevant—Abnormality that was not alarming. • Patient condition—Abnormality that was a consequence of the patient's disease, age, etc. • Adverse event—Clinically relevant abnormal value that cannot be explained by the above assessment flags. Adverse Event/Serious Adverse Event CRF was filled in.
Descriptive statistics were used for safety variables.

[4] = Bioavailability and expected plasma concentration of subcutaneously administered C-peptide; assay type: in vivo, human; settings: low dose 500 nmoL/24 h given 4 times daily
Description: The dose selection is based on data from previous studies, in which C-peptide has been replaced for 3 months (600 nmoL/24 h) and an effect on albumin excretion and sensory nerve conduction velocity has been observed (Johansson et al., 2000; Ekberg et al., 2003). In order to maintain adequate levels of C-peptide for as many hours of the day as possible, the daily dose was divided into four doses, injected subcutaneously using Disetronic Pen 25, and administered in the morning, at lunch, at dinner, and at bedtime. […] To determine if C-peptide at a higher dose has an optimal effect, a 3 times higher dose (1,500 nmoL/24 h) was also administered.
The low-dose regimen was expected to give a mean physiological plasma concentration of ˜1 nmoL/L during the 24 h period. The high dose regimen was expected to result in concentrations ˜3 times those of the low dose regimen. The actual exposure is described in section above on “C-peptide concentrations”. […] The sampling of C-peptide in plasma at visits 2 and 4 coincided with the clinical visit and the time between the most recent administration of the trial drug and sampling varied between patients. Thereby, the results of C-peptide concentrations in plasma became less suitable for pharmacokinetic evaluations.

[5] = tested on: type 1 diabetes patients with peripheral neuropathy; assay: Adverse events incl. severe hypoglycemic events and hypoglycemic coma; settings: for AEs of any severity: Tooth ache: Gastrointestinal Disorders
[6] = Low-dose, ITT data set, Infections and infestations
[7] = Low-dose, PP data set, Infections and infestations
[8] = Low-dose, PP data set, Injury poisoning, procedural complications
[9] = Low-dose, PP data set, Investigations

## CC(C)C[C@H](NC(=O)[C@H](C)NC(=O)[C@H](CC(C)C)NC(=O)[C@@H]1CCCN1C(=O)[C@H](CCC(N)=O)NC(=O)[C@H](CC(C)C)NC(=O)[C@H](CO)NC(=O)CNC(=O)[C@H](C)NC(=O)CNC(=O)[C@@H]1CCCN1C(=O)CNC(=O)CNC(=O)CNC(=O)[C@H](CC(C)C)NC(=O)[C@H](CCC(=O)O)NC(=O)[C@@H](NC(=O)[C@H](CCC(N)=O)NC(=O)CNC(=O)[C@@H](NC(=O)[C@H](CCC(N)=O)NC(=O)[C@H](CC(C)C)NC(=O)[C@H](CC(=O)O)NC(=O)[C@H](CCC(=O)O)NC(=O)[C@H](C)NC(=O)[C@@H](N)CCC(=O)O)C(C)C)C(C)C)C(=O)N[C@@H](CCC(=O)O)C(=O)NCC(=O)N[C@@H](CO)C(=O)N[C@@H](CC(C)C)C(=O)N[C@@H](CCC(N)=O)C(=O)O [C-peptide, Recombinant human C-peptide]
[1]; High-dose C-peptide, n=4
  Increase in pre-dosing morning C-peptide plasma level vs baseline: 0.13 ± 0.083 nmol/L
[1]; Low-dose C-peptide, n=8
  Increase in pre-dosing morning C-peptide plasma level vs baseline: 0.045 ± 0.092 nmol/L
[1]; dose ranges of the study, 4.5 months
  Accumulation following repeated C-peptide dosing: likely no significant accumulation
[1]; human, plasma, sc, during treatment, maximum in the high dose group, read-out: Plasma levels of C-peptide attained
  level at time molar: 0.2 to 6 nM
C-peptide antibodies
  Antibody reactivity to C-peptide: no or very weak reactivity
[2]; High-dose C-peptide, n = 39
  BPd (diastolic blood pressure), change from baseline to 6 months treatment (visit 4), Mean ± SD: −2.6 ± 8.0 mm Hg
  BPd (diastolic blood pressure), change from baseline to 6 months treatment (visit 4), Median: −1.0 mm Hg
  BPs (systolic blood pressure), change from baseline to 6 months treatment (visit 4), Mean ± SD: −8.8 ± 10.0 mm Hg
  BPs (systolic blood pressure), change from baseline to 6 months treatment (visit 4), Median: −8.0 mm Hg
  Heart rate, change from baseline to 6 months treatment (visit 4), Mean ± SD: −3.2 ± 10.0 bpm
  Heart rate, change from baseline to 6 months treatment (visit 4), Median: −4.0 bpm
  QTc-interval Bazett, change from baseline to 6 months treatment (visit 4), Mean ± SD: -4.5 ± 20.3 ms
  QTc-interval Bazett, change from baseline to 6 months treatment (visit 4), Median: 0.0 ms
  QTc-interval Fredericia, change from baseline to 6 months treatment (visit 4), Mean ± SD: -0.5 ± 16.2 ms
  QTc-interval Fredericia, change from baseline to 6 months treatment (visit 4), Median: 0.0 ms
[2]; High-dose C-peptide, p<0.004, not different from placebo
  Decrease in systolic blood pressure compared to the low-dose C-peptide group: significantly greater decrease
[2]; Low-dose C-peptide, n = 53
  BPd (diastolic blood pressure), change from baseline to 6 months treatment (visit 4), Mean ± SD: −2.7 ± 8.2 mm Hg
  BPd (diastolic blood pressure), change from baseline to 6 months treatment (visit 4), Median: −1.0 mm Hg
  BPs (systolic blood pressure), change from baseline to 6 months treatment (visit 4), Mean ± SD: −2.1 ± 12.8 mm Hg
  BPs (systolic blood pressure), change from baseline to 6 months treatment (visit 4), Median: −1.0 mm Hg
  Heart rate, change from baseline to 6 months treatment (visit 4), Mean ± SD: −0.9 ± 8.2 bpm
  Heart rate, change from baseline to 6 months treatment (visit 4), Median: −2.0 bpm
  QTc-interval Bazett, change from baseline to 6 months treatment (visit 4), Mean ± SD: -0.1 ± 17.5 ms
  QTc-interval Bazett, change from baseline to 6 months treatment (visit 4), Median: 0.0 ms
  QTc-interval Fredericia, change from baseline to 6 months treatment (visit 4), Mean ± SD: 0.9 ± 14.1 ms
  QTc-interval Fredericia, change from baseline to 6 months treatment (visit 4), Median: 1.3 ms
[2]; any of the three treatment groups, 6 months
  Changes in heart rate, blood pressure, and QTc: nor were there any significant changes
[2]; during study medication treatment
  Abnormalities in ECG: no clinically significant abnormalities
[3]
  Changes in clinical laboratory variables: no significant changes in any of the variables
[4]
  Expected physiological mean plasma concentration: ~1 nmoL/L
[5]; High-dose, ITT data set, Infections and infestations
  AEs of severe intensity (S): Sepsis: S (1)
[5]; High-dose, PP data set
  AEs of any severity: Tooth ache: 3
[5]; High-dose, PP data set, Infections and infestations
  AEs of any severity: Urinary tract infection: 1
[5]; High-dose, PP data set, Skin and subcutaneous tissue disorders
  AEs of any severity: Skin infection: 2
[5]; [6]
  AEs of moderate intensity (M): Acute HIV infection: M (1)
  AEs of moderate intensity (M): Borrelia infection: M (1)
  AEs of moderate intensity (M): Herpes zoster: M (1)
[5]; Low-dose, ITT data set, Skin and subcutaneous tissue disorders
  AEs of moderate intensity (M): Skin infection: M (1)
[5]; Low-dose, PP data set
  AEs of any severity: Tooth ache: 2
[5]; [7]
  AEs of any severity: Acute HIV infection: 1
  AEs of any severity: Borrelia infection: 1
  AEs of any severity: Herpes simplex: 1
  AEs of any severity: Herpeszoster: 1
  AEs of any severity: Influenza: 1
  AEs of any severity: Nasopharyngitis: 31
  AEs of any severity: Otitis: 1
  AEs of any severity: Pharyngitis: 1
  AEs of any severity: Sinusitis: 4
  AEs of any severity: Skin infection: 5
  AEs of any severity: Tonsilitis: 1
  AEs of any severity: Upper respiratory tract infection: 3
  AEs of any severity: Urinary tract infection: 3
[5]; [8]
  AEs of any severity: Joint sprain ankle: 1
  AEs of any severity: Rib fracture/injury: 1
  AEs of any severity: Skin injury: 2
[5]; [9]
  AEs of any severity: Elevated serum creatinine: 1
  AEs of any severity: Hepatic enzyme increase: 2
  AEs of any severity: Hyperkalaemia: 1
  AEs of any severity: Weight increased: 1
[5]; during the study
  Deaths: No deaths
